This note sets out measurements from patent US5138035A, “Cyclopeptide derivatives usable as selective inhibitors with respect to proteases with active serine” (Centre National de la Recherche Scientifique, priority 1988, dated 1992).

Format in all cases: biochemical
The target in one test is elastase (Sus scrofa, UniProt P00772). The test can be described thus: Action on elastase (Examples 2 and 4). Particulars: species not given.
The target of the next test is human t-PA (Homo sapiens, UniProt P00750). The test is described as follows: Inactivation of human t-PA. As to conditions: 25° C., 0.05M Tris, 0.038M NaCl, 0.01% (v/v) Tween 80, pH 8.3, method b. The method, then: The inactivating or inhibiting properties of this derivative with respect to human t-PA are checked at 25° C. in a 0.05M Tris buffer, 0.038M NaCl, 0.01% (v/v) Tween 80 and pH 8.3.

The target in another test is human urokinase (Homo sapiens, UniProt P00749). The test can be described thus: Inactivation of human urokinase (Kitz and Wilson / Hart and O'Brien kinetic methods). Particulars: 25° C., 0.025M sodium phosphate, 0.1M NaCl, 0.05% (v/v) Tween 80, pH 7.5, method a and/or b. From the text: (§1) The properties of the cyclopeptide derivative of formula (XVI) are checked and in particular its capacity to inactivate bovine trypsin or human urokinase using the methods of Kitz and Wilson (for trypsin and urokinase) and the method of Hart and O'Brien (for trypsin), 1973, published in Biochemistry, 12, pp. 2940-2945.
(§2) The properties of the cyclopeptide derivative of formula (XXIII) are checked and in particular its capacity to inactivate bovine trypsin or human urokinase using the same methods as in Example 2 and working at 25° C. with the 0.025M sodium phosphate buffer, 0.1M NaCl, 0.05% (v/v) Tween 80 and at pH 7.5 for human urokinase.
(§3) The kinetic measurements were carried out at 25° C. in the following buffers: 0.1M Tris, 0.01M CaCl2, pH 7.2 (bovine trypsin); 0.025M sodium phosphate, 0.1M NaCl, 0.05% (v/v) Tween 80, pH 7.5 (human urokinase); 0.05M Tris, 0.038M NaCl, 0.01% (v/v) Tween 80, pH 8.3 (human t-PA), 0.1M Tris (porcine pancreatic elastase), 0.1M sodium phosphate, 25% (v/v) glycerol (human plasmin). […]

A further test deals with T1, bovine trypsin (Bos taurus, UniProt P00760).
T1 sequence (P00760 24-246): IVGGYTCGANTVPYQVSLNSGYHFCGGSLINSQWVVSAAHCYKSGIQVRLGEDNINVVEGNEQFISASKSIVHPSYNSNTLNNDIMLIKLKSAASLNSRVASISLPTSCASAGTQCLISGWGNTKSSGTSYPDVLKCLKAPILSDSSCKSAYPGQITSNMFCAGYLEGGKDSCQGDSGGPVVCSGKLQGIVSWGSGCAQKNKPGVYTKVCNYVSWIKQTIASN
The test is described as follows: Inactivation of bovine trypsin (Hart and O'Brien / Kitz and Wilson kinetic methods). As to conditions: 25° C., 0.1M Tris, 0.01M CaCl2, pH 7.2 (Example 14), method a (Hart and O'Brien) or b (Kitz and Wilson).
From the text: as §1, §2, §3

Each structure is given as a SMILES string. *1 amine or outer side, *2 acyl side, *3 side chain or, on linkers, in order; H or OH if unused. Where a SMILES comes first, the peptide text is derived from it. [ ]: non-standard residue; d: D form. X3 = O=C(c1cc(N[*:1])ccc1CBr)[*:2]

Sequence of human t-PA (P00750 36-562): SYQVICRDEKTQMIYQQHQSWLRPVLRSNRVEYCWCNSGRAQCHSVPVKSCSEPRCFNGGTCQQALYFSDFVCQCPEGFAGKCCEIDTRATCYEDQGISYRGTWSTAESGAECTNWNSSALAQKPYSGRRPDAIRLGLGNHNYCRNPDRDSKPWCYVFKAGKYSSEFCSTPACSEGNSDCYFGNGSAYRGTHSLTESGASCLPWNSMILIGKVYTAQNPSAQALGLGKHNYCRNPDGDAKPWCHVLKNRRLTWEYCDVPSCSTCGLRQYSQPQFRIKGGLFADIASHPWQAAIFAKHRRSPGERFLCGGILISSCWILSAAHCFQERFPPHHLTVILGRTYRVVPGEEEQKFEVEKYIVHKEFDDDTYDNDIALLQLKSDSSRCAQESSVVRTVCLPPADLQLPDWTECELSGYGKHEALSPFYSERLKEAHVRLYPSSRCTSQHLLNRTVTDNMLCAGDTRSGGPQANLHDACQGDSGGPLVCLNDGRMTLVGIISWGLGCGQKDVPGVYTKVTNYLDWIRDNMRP
Sequence of elastase (P00772 27-266): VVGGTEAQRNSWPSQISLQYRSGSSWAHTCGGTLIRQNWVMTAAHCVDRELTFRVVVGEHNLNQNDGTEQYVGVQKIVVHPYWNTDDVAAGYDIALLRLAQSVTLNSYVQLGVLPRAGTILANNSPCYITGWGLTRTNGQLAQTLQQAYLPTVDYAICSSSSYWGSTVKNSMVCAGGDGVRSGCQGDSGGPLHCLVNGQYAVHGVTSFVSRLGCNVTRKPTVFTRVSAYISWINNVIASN

With `N=C(N)NCCC[C@@H]1NC(=O)CNC(=O)CNC(=O)CNC(=O)CNC(=O)c2cc(ccc2CBr)NC1=O` [Compound (XXIII)] (cyclo(GGGGR[X3])), on elastase, the action on elastase result is recorded as “no action”. Moreover, the figures for the “apparent inactivation constant ki/Ki” value at human t-PA, on human urokinase and at bovine trypsin were 0.3 M⁻¹ s⁻¹, 165 M⁻¹ s⁻¹ and 150 M⁻¹ s⁻¹, respectively.
